Publication PMC10743905, “Design, Synthesis, and In Vitro and In Vivo Bioactivity Studies of Hydrazide–Hydrazones of 2,4-Dihydroxybenzoic Acid” (International Journal of Molecular Sciences, 2023)
In brackets after ≈: the same amount, converted by molar mass.

Legend:
[1] = test system: Candida glabrata ATCC 90030; test: Broth microdilution MIC/MFC; type: cell-based; details: Nakaseomyces glabratus, ATCC90030, read-out: MIC
Description: (§1) In vitro antimicrobial activity assays - Methodology
(§2) The examined compounds 1 - 24 were screened in vitro for antibacterial and antifungal activities using the broth microdilution method according to procedure reported earlier by our research group and European Committee on Antimicrobial Susceptibility Testing (EUCAST) and Clinical and Laboratory Standards Institute (CLSI) guidelines against a panel of reference and clinical or saprophytic strains of microorganisms, in-cluding Gram-positive bacteria, Staphylococcus aureus ATCC 43300 (Methicillin Resistant S. aureus – MRSA), Staphylococcus aureus ATCC 29213 (Methicillin Susceptible S. aureus – MSSA), Staphylococcus epidermidis ATCC 12228, Enterococcus faecalis ATCC 29212, Micro-coccus luteus ATCC 10240, Bacillus subtilis ATCC 6633 and Bacillus cereus ATCC 10876), Gram-negative bacteria (Bordetella bronchiseptica ATCC 4617, Escherichia coli ATCC 25922, Klebsiella pneumoniae ATCC 13883, Proteus mirabilis ATCC 12453, Salmonella typhimurium ATCC 14028 and Pseudomonas aeruginosa ATCC 9027) and fungi belonging to yeasts (Can-dida albicans ATCC 10231, Candida albicans ATCC 2091, Candida parapsilosis ATCC 22019, Candida glabrata ATCC 90030 and Candida krusei ATCC 14243). The microorganisms be-longing to ATCC came from American Type Culture Collection, routinely used for the evaluation of antimicrobials. All the used microbial cultures were first subcultured on nu-trient agar or Sabouraud agar at 35°C for 18-24 h or 30°C for 24-48 h for bacteria and fungi, […]
(§3) The surface of Mueller-Hinton agar (for bacteria) and RPMI 1640 with MOPS (for fungi) were inoculated with the suspensions of bacterial or fungal species. Microbial suspensions were prepared in sterile saline with an optical density of McFarland standard scale 0.5.
(§4) Samples containing examined compounds were dissolved in dimethyl sulfoxide (DMSO).
(§5) Furthermore, bacterial and fungal suspensions were put onto Petri dishes with solid me-dia containing 2 mg/mL of the tested compounds followed incubation at 37°C for 24h and 30°C for 48h for bacteria and fungi, respectively. The inhibition of microbial growth was judged by comparison with a control culture prepared without any sample tested. Ciprof-loxacin, vancomycin, nitrofurantoin, cefuroxime, ampicillin or nystatin (Sigma) were used as a reference antibacterial or antifungal compounds, respectively.
(§6) Subsequently, the MIC (Minimal Inhibitory Concentration) of the compounds was ex-amined by the microdilution broth method, using their two-fold dilutions in Mueller- […]
(§7) Hinton broth or (for bacteria) and RPMI 1640 broth with MOPS (for fungi) prepared in 96-well polystyrene plates. Final concentrations of the compounds ranged from 1000 to 0.488 µg/ml. Microbial suspensions were prepared in 0.85% NaCl with an optical density of 0.5 McFarland standard. Next each bacterial or fungal suspension was added per each well containing broth and various concentrations of the examined compounds. After incuba-

[2] = test system: Candida albicans ATCC 2091; test: Broth microdilution MIC/MFC; type: cell-based; details: for MIC: ATCC2091, read-out: MIC
Description: as §1, §2, §3, §4, §5, §6, §7

[3] = test system: Candida albicans ATCC 10231; test: Broth microdilution MIC/MFC; type: cell-based; details: for MIC: ATCC10231, read-out: MIC
Description: as §1, §2, §3, §4, §5, §6, §7

[4] = test system: Candida parapsilosis ATCC 22019; test: Broth microdilution MIC/MFC; type: cell-based; details: for MIC: ATCC22019, read-out: MIC
Description: as §1, §2, §3, §4, §5, §6, §7

[5] = test system: Candida krusei ATCC 14243; test: Broth microdilution MIC/MFC; type: cell-based; details: Pichia kudriavzevii, ATCC14243, read-out: MIC
Description: as §1, §2, §3, §4, §5, §6, §7

[6] = test system: Bacillus subtilis ATCC 6633; test: Broth microdilution MIC/MBC; type: cell-based; details: for MIC: ATCC6633, read-out: MIC
Description: Detailed procedures are presented in the Supplementary Materials. […]
as §1, §2, §3, §4, §5, §6, §7

[7] = test system: Enterococcus faecalis ATCC 29212; test: Broth microdilution MIC/MBC; type: cell-based; details: for MIC: ATCC29212, read-out: MIC
Description: as §1, §2, §3, §4, §5, §6, §7

[8] = test system: Escherichia coli ATCC 25922; test: Broth microdilution MIC/MBC; type: cell-based; details: ATCC25922
Description: as §1, §2, §3, §4, §5, §6, §7

[9] = test system: Bordetella bronchiseptica ATCC 4617; test: Broth microdilution MIC/MBC; type: cell-based; details: ATCC4617
Description: as §1, §2, §3, §4, §5, §6, §7

[10] = test system: Klebsiella pneumoniae ATCC 13883; test: Broth microdilution MIC/MBC; type: cell-based; details: ATCC13883
Description: as §1, §2, §3, §4, §5, §6, §7

[11] = test system: Bacillus cereus ATCC 10876; test: Broth microdilution MIC/MBC; type: cell-based; details: for MIC: ATCC10876, read-out: MIC
Description: as §1, §2, §3, §4, §5, §6, §7

[12] = test system: Pseudomonas aeruginosa ATCC 9027; test: Broth microdilution MIC/MBC; type: cell-based; details: ATCC9027
Description: as §1
as §2, with “antimicrobials.” for “antimicrobials. All the used microbial cultures were first subcultured on nu-trient agar or Sabouraud agar at 35°C for 18-24 h or 30°C for 24-48 h for bacteria and fungi,”
(§8) Samples containing examined compounds were dissolved in dimethyl sulfoxide (DMSO). […]
as §6, §7

[13] = test system: Micrococcus luteus ATCC 10240; test: Broth microdilution MIC/MBC; type: cell-based; details: for MBC: ATCC10240; for MIC: ATCC10240, read-out: MIC
Description: as §1
as §2, with “antimicrobials.” for “antimicrobials. All the used microbial cultures were first subcultured on nu-trient agar or Sabouraud agar at 35°C for 18-24 h or 30°C for 24-48 h for bacteria and fungi,”
as §8, §6, §7

[14] = test system: Staphylococcus epidermidis ATCC 12228; test: Broth microdilution MIC/MBC; type: cell-based; details: for MBC: ATCC12228; for MIC: ATCC12228, read-out: MIC
Description: as §1
as §2, with “antimicrobials.” for “antimicrobials. All the used microbial cultures were first subcultured on nu-trient agar or Sabouraud agar at 35°C for 18-24 h or 30°C for 24-48 h for bacteria and fungi,”
as §8, §6, §7

[15] = test system: Staphylococcus aureus ATCC 29213; test: Broth microdilution MIC/MBC; type: cell-based
Description: as §1
as §2, with “antimicrobials.” for “antimicrobials. All the used microbial cultures were first subcultured on nu-trient agar or Sabouraud agar at 35°C for 18-24 h or 30°C for 24-48 h for bacteria and fungi,”
as §8, §6, §7

[16] = test system: Staphylococcus aureus ATCC 43300; test: Broth microdilution MIC/MBC; type: cell-based; details: Staphylococcus aureus ATCC 43300 (MRSA)
Description: as §1
as §2, with “antimicrobials.” for “antimicrobials. All the used microbial cultures were first subcultured on nu-trient agar or Sabouraud agar at 35°C for 18-24 h or 30°C for 24-48 h for bacteria and fungi,”
as §8, §6, §7

[17] = test system: Proteus mirabilis ATCC 12453; test: Broth microdilution MIC/MBC; type: cell-based; details: ATCC12453
Description: as §1
as §2, with “antimicrobials.” for “antimicrobials. All the used microbial cultures were first subcultured on nu-trient agar or Sabouraud agar at 35°C for 18-24 h or 30°C for 24-48 h for bacteria and fungi,”
as §8, §6, §7

[18] = test system: Salmonella typhimurium ATCC 14028; test: Broth microdilution MIC/MBC; type: cell-based; details: Salmonella enterica
Description: as §1
as §2, with “antimicrobials.” for “antimicrobials. All the used microbial cultures were first subcultured on nu-trient agar or Sabouraud agar at 35°C for 18-24 h or 30°C for 24-48 h for bacteria and fungi,”
as §8, §6, §7

| Structure (SMILES) | MIC [1] [µg/mL] | MIC [2] [µg/mL] | MIC [3] [µg/mL] | MIC ([4]; Lodderomyces parapsilosis) [µg/mL] | MIC [5] [µg/mL] | melting point [°C] | MIC [6] [µg/mL] | MIC [7] [µg/mL] | MIC [8] [µg/mL] | MIC [9] [µg/mL] | MIC [10] [µg/mL] | MIC [11] [µg/mL] | MIC [12] [µg/mL] | MBC/MIC [13] | MBC [13] [µg/mL] | MIC [13] [µg/mL] | MBC/MIC [14] | MBC [14] [µg/mL] | MIC [14] [µg/mL] | MIC ([15]; ATCC29213) [µg/mL] | also measured |
| --- | --- | --- | --- | --- | --- | --- | --- | --- | --- | --- | --- | --- | --- | --- | --- | --- | --- | --- | --- | --- | --- |
| COc1cc(/C=N/NC(=O)c2ccc(O)cc2O)cc(I)c1O [Compound 16, 2,4-dihydroxy-N-[(4-hydroxy-3-iodo-5-methoxyphenyl)methylidene]benzohydrazide] | > 1000 | 250 (≈ 584 µM) | 1000 (≈ 2340 µM) | > 1000 | > 1000 | 255 | 250 (≈ 584 µM) | 1000 (≈ 2340 µM) | > 1000 | > 1000 | > 1000 | 1000 (≈ 2340 µM) | > 1000 | > 4 | > 1000 | 250 (≈ 584 µM) | > 1 | > 1000 | 1000 (≈ 2340 µM) | 1000 (≈ 2340 µM) | MFC/MIC [2]: > 4; MFC ([2]; ATCC2091, read-out: MFC): > 1000 µg/mL; MFC/MIC [3]: > 1; MFC ([3]; ATCC10231, read-out: MFC): > 1000 µg/mL; MBC/MIC [6]: > 4; MBC ([6]; ATCC6633): > 1000 µg/mL; MBC/MIC [7]: > 1; MBC ([7]; ATCC29212, read-out: MBC): > 1000 µg/mL; MBC/MIC [11]: > 1; MBC ([11]; ATCC10876): > 1000 µg/mL; MBC/MIC [15]: > 1; MBC ([15]; ATCC29213): > 1000 µg/mL; MIC [16]: > 1000 µg/mL; MIC [17]: > 1000 µg/mL; MIC [18]: > 1000 µg/mL |
| COc1ccc(/C=N/NC(=O)c2ccc(O)cc2O)c(Br)c1O [Compound 15, N-[(2-bromo-3-hydroxy-4-methoxyphenyl)methylidene]-2,4-dihydroxybenzohydrazide] | > 1000 | > 1000 | > 1000 | 1000 (≈ 2620 µM) | > 1000 | 244 | > 1000 | > 1000 | > 1000 | > 1000 | > 1000 | > 1000 | > 1000 | > 2 | > 1000 | 500 (≈ 1310 µM) | > 1 | > 1000 | 1000 (≈ 2620 µM) | > 1000 | MFC/MIC [4]: > 1; MFC ([4]; Lodderomyces parapsilosis, ATCC22019, read-out: MFC): > 1000 µg/mL; MIC [16]: > 1000 µg/mL; MIC [17]: > 1000 µg/mL; MIC [18]: > 1000 µg/mL |
